We go through 1 compound from article PMC8834506, “Optimization of Thymidine Kinase-Based Safety Switch for Neural Cell Therapy” (Cells, 2022).

The test system of data set [1] is host cell DNA. The following applies: cited from earlier work.
Data set [2] deals with Ubi-SR39h post-mitotic neurons differentiated from ReNcells. It counts as cell-based, human. Here is the method: Figure 4 EC50 and kinetics of GCV-induced cell death in proliferating and post-mitotic ReNcells. SR39h was expressed in ReNcells (immortalized neural precursor cells that can be differentiated to post-mitotic neurons) under the control of the two different promoters: Ki67 or ubiquitin. Wild type ReNcells were used as control. […] (B–D) Kinetics of cell death of SR39-expressing ReNcells cells either under the control of cycle promoter Ki67 or ubiquitin promoter with increasing GCV concentrations of 1, 10, and 100 µM. Cell viability was measured every 24 h using a bioluminescent ATP-based assay (n = 3). (E) ReNcells were differentiated toward post-mitotic neurons for 21 days then treated with GCV for 10 days. Cell viability was measured using an ATP-based assay. Results are mean + SD of three independent experiments performed in triplicates. […]
Cell culture plate (96 wells plate Corning #3907, Corning, Lonay, Switzerland) were pre-coated with 60 μL per well of Poly-L-ornithine solution (Sigma, Merk, Eysins, Switzerland) at 37 °C for 30 min. […] For EC50 assays, the medium was changed daily for 4 days, then cell viability was assessed using an ATP-based assay. EC50 values for each construct were calculated using a four parameters equation (GraphPad, Prism8, San Diego, CA, USA). […] Luminescence was measured using Spectra L384/L96 (0.2 sec exposure, Molecular devices, Biberach an der Riß, Germany). […]

The conditions of data set [3]: 10 mg/kg/day; cited from earlier work.

For `Nc1nc(O)c2ncn(COC(CO)CO)c2n1` [GCV, ganciclovir], in data set [1], the “Fragmentation of host cell DNA” value was “induce fragmentation of host cell DNA”. The “Cell death in post-mitotic neurons (in words)” value in data set [2] is recorded as “killed”. For the same compound, the “GCV concentration from which cell death induction was detected” value in data set [2] (human, 10 days) is not below 10 µM. For the same compound, the “Side effects at the maximal recommended doses” value in data set [3] is recorded as “considerable side effects”.
